Where two headings read alike, the source gives them in different places.
How the values were obtained:
[1] = ref Horton et al., cited from earlier work; for pKa of the α-amino group: 25 °C, free amino acid
Caco-2 cells [2] = type: cell-based, human; conditions: for IC50: read-out: IC50 MTT 24-hr, Caco-2 confluent monolayers, 24-hr single dosing
Caco-2 cells [3] = type: cell-based, human; conditions: read-out: IC50 TMER 24-hr; Caco-2 monolayers on PET inserts, 24-hr single dosing

Molecule | pKa of the α-amino group [1] | IC50 (Caco-2 cells [2]) [mM] | IC50 (Caco-2 cells [3]) [mM] | also measured
NC(=O)C[C@H](N)C(=O)O [asparagine] | 8.7 |  |  | 
[Cl][Cd][Cl] [cadmium chloride] |  | 0.109 | 0.049 | 
O=S(=O)([O-])[O-].[Cu+2] [cupric sulfate] |  | 1.57 | 1.8 | 
N[C@@H](CS)C(=O)O [cysteine] | 10.7 |  |  | 
NCC(=O)O [glycine] | 9.8 |  |  | hydropathy (tendency to prefer a hydrophobic environment) [1]: 0.16 kcal/mol
[Cl][Mn][Cl] [manganese chloride] |  | 9.6 | 3.08 | 
[Cl][Ni][Cl] [nickel chloride] |  | 0.968 | 8.4 | MTT (cell viability) (Caco-2 cells [2]; 24-hr single exposure at the 24-hr TMER IC50 concentration): 16% of control
N[C@@H](Cc1ccc(O)cc1)C(=O)O [tyrosine] |  |  |  | hydropathy (tendency to prefer a hydrophobic environment) [1]: 0.019 kcal/mol
mercury chloride |  |  | 0.09 | 
